According to US10273234B2, “Compounds that are S1P modulating agents and/or ATX modulating agents” (BIOGEN MA INC., priority 2012, dated 2019):

Molecular target: human S1P4 (Homo sapiens (Human), UniProt O95977)
Experiment: Calcium mobilization (calcium flux) assay, antagonist format, S1P4
Assay type: cell-based
Settings: recombinant CHEM cells expressing human S1P4; FLIPR Calcium 4 dye; stimulated with EC80 of reference agonist
Method: Compounds that are not specific for a particular S1P receptor can cause undesirable side effects. Accordingly, compounds are tested to identify those that are specific. Accordingly, the test compounds are tested in a calcium mobilization assay/S1P receptor activity assay. The procedure is essentially as described in Davis et al. (2005) Journal of Biological Chemistry, vol. 280, pp. 9833-9841, which is incorporated by reference in its entirety with the following modifications. Calcium mobilization assays are performed in recombinant CHEM cells expressing human S1P1, S1P2, S1P3, S1P4, or S1P5 purchased from Millipore (Billerica, Mass.). To detect free intracellular calcium, S1P1, S1P2, S1P3, S1P4, or S1P5 cells are loaded with FLIPR Calcium 4 dye from Molecular Devices (Sunnyvale, Calif.). Cells are imaged for calcium mobilization using a FLIPR^TETRA equipped with a 96-well dispense head. […]
Assay was read for 180 seconds using the FLIPR^TETRA (This assay run added sample compounds and reference agonist to respective wells). […]
Using the EC80 values determined during the agonist assay, stimulated all pre-incubated sample compound and reference antagonist (if applicable) wells with EC80 of reference agonist. Read for 180 seconds using the FLIPR^TETRA (This assay added reference agonist to respective wells—then fluorescence measurements were collected to calculate percentage inhibition values).

human S1P4, sequence (O95977 whole entry): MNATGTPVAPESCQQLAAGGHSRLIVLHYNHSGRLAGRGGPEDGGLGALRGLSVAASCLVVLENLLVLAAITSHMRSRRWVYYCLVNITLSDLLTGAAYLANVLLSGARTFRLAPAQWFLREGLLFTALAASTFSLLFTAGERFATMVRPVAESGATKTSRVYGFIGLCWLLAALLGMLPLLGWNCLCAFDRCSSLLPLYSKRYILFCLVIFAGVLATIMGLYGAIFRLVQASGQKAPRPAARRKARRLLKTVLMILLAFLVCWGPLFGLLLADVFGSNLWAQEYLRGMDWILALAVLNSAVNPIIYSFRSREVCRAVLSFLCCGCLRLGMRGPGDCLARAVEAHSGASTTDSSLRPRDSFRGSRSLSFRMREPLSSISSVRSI

IC50: ≤ 250 nM
SMILES: CC(C)(C)[C@H]1CC[C@H](Oc2cccc3c(CN4CCC(C(=O)O)CC4)cccc23)CC1 [Example 30, 1-((5-((trans-4-(tert-butyl)cyclohexyl)oxy)naphthalen-1-yl)methyl)piperidine-4-carboxylic acid]
